# Experimental data from patent US20220388964A1 (HiberCell, Inc., priority 2019, published 2022).
# How the values were obtained:
# GCN2 [1] = target: T1, GCN2 (Homo sapiens, UniProt Q9P2K8); assay: TR-FRET assay for inhibition of GCN2 (Example 107, for Examples 40-72)
# GCN2 [2] = target: T1, GCN2; assay: TR-FRET biochemical assay for inhibition of GCN2 (Example 106, for Example 1-4BB)
# T1 sequence (Q9P2K8 whole entry): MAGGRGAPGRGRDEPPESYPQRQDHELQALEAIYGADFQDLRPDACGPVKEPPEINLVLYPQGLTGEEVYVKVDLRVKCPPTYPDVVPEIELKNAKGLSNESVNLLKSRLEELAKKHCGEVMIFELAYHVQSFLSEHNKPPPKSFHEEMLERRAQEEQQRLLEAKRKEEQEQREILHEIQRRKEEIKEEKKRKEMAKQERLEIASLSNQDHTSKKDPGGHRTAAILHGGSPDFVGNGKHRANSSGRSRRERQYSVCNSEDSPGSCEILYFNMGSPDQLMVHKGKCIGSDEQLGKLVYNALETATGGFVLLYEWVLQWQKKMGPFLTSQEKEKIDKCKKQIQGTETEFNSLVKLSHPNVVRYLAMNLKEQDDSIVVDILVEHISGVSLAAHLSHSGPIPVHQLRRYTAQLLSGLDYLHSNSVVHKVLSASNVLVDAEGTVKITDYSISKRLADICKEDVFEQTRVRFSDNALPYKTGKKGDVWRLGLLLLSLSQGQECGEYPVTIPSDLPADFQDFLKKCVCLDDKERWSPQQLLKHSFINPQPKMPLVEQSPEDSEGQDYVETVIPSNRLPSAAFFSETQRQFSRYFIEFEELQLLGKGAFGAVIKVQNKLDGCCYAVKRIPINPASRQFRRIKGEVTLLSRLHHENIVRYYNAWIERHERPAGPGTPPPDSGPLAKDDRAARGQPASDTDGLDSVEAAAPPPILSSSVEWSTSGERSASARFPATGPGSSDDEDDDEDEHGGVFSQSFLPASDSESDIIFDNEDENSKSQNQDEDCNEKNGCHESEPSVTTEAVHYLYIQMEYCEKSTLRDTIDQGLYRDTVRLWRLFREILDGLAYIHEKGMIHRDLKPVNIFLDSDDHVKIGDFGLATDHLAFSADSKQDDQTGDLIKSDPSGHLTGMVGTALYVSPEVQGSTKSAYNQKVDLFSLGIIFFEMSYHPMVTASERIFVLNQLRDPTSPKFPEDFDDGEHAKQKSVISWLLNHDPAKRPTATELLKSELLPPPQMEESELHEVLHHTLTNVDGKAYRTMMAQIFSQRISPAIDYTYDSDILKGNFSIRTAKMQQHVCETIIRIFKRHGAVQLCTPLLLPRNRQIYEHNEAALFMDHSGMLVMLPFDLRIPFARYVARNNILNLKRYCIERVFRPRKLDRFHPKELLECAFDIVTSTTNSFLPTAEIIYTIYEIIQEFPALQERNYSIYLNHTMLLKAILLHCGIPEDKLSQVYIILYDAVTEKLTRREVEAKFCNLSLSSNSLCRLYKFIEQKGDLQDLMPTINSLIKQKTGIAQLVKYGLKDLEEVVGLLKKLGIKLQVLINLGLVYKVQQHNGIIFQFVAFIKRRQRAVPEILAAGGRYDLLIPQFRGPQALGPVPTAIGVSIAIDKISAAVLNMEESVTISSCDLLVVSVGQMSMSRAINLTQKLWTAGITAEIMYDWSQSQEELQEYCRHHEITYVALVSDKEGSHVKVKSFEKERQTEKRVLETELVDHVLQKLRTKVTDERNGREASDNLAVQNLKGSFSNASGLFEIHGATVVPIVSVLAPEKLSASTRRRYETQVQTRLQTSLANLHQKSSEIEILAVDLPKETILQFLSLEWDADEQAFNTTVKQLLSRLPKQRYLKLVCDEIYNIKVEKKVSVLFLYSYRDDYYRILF
SMILES,IC50 (GCN2 [1]),IC50 (GCN2 [2]; Table 9),also measured
"CNC(=O)c1n[nH]c2c(F)c(-c3c(F)ccc(NS(=O)(=O)c4cc(Cl)cnc4C)c3F)ncc12 [Example 72, 6-[3-(5-Chloro-2-methylpyridine-3-sulfonamido)-2,6-difluorophenyl]-7-fluoro-N-methyl-1H-pyrazolo[4,3-c]pyridine-3-carboxamide]",< 500 nM,–,–
"CNC(=O)c1n[nH]c2c(F)c(-c3c(F)ccc(NS(=O)(=O)c4cc(Cl)cnc4OC(F)F)c3F)ccc12 [Example 45, 6-[3-[5-chloro-2-(difluoromethoxy)pyridine-3-sulfonamido]-2,6-difluorophenyl]-7-fluoro-N-methyl-1H-indazole-3-carboxamide]",< 500 nM,–,–
"CNC(=O)c1n[nH]c2c(F)c(-c3c(F)ccc(NS(=O)(=O)c4cc(F)cnc4C)c3F)ncc12 [Example 66, 6-[2,6-Difluoro-3-(5-fluoro-2-methylpyridine-3-sulfonamido)phenyl]-7-fluoro-N-methyl-1H-pyrazolo[4,3-c]pyridine-3-carboxamide]",< 500 nM,–,–
"CCC(C)NC(=O)c1n[nH]c2c(F)c(-c3c(F)ccc(NS(=O)(=O)c4cc(Cl)cnc4OC)c3F)ccc12 (centres unmarked) [Example 56, 6-[3-(5-Chloro-2-methoxypyridine-3-sulfonamido)-2,6-difluorophenyl]-7-fluoro-N-(sec-butyl)-1H-indazole-3-carboxamide]",< 500 nM,–,–
"COc1ncc(Cl)cc1S(=O)(=O)Nc1ccc(F)c(-c2ccc3c(C(=O)NC4CCN(C(C)=O)C4)n[nH]c3c2F)c1F (centres unmarked) [Example 51, N-(1-acetylpyrrolidin-3-yl)-6-[3-(5-chloro-2-methoxypyridine-3-sulfonamido)-2,6-difluorophenyl]-7-fluoro-1H-indazole-3-carboxamide]",< 500 nM,–,–
"COc1ncc(Cl)cc1S(=O)(=O)Nc1ccc(F)c(-c2ccc3c(C(=O)NCC(C)C)n[nH]c3c2F)c1F [Example 48, 6-[3-(5-Chloro-2-methoxypyridine-3-sulfonamido)-2,6-difluorophenyl]-7-fluoro-N-(2-methylpropyl)-1H-indazole-3-carboxamide]",< 500 nM,–,–
"COc1ncc(Cl)cc1S(=O)(=O)Nc1ccc(F)c(-c2ccc3c(C(=O)NCC(C)O)n[nH]c3c2F)c1F (centres unmarked) [Example 52, 6-[3-(5-Chloro-2-methoxypyridine-3-sulfonamido)-2,6-difluorophenyl]-7-fluoro-N-(2-hydroxypropyl)-1H-indazole-3-carboxamide]",< 500 nM,–,–
"CNC(=O)c1n[nH]c2c(F)c(-c3c(F)ccc(NS(=O)(=O)c4cc(Cl)cnc4OC)c3F)cc(C)c12 [Example 47, 6-[3-(5-chloro-2-methoxypyridine-3-sulfonamido)-2,6-difluorophenyl]-7-fluoro-N,4-dimethyl-1H-indazole-3-carboxamide]",< 500 nM,–,–
"COc1ncc(Cl)cc1S(=O)(=O)Nc1ccc(F)c(-c2ccc3c(C(=O)NC4CCNC4)n[nH]c3c2F)c1F (centres unmarked) [Example 57, 6-[3-(5-Chloro-2-methoxypyridine-3-sulfonamido)-2,6-difluorophenyl]-7-fluoro-N-(pyrrolidin-3-yl)-1H-indazole-3-carboxamide]",< 500 nM,–,–
"COc1ncc(Cl)cc1S(=O)(=O)Nc1ccc(F)c(-c2ccc3c(C(=O)NC4CCC(=O)N(C)C4)n[nH]c3c2F)c1F (centres unmarked) [Example 50, 6-[3-(5-Chloro-2-methoxypyridine-3-sulfonamido)-2,6-difluorophenyl]-7-fluoro-N-(1-methyl-6-oxopiperidin-3-yl)-1H-indazole-3-carboxamide]",< 500 nM,–,–
"CNC(=O)c1n[nH]c2c(F)c(-c3c(F)ccc(NS(=O)(=O)c4cc(F)cnc4C)c3F)ccc12 [Example 65, 6-[2,6-difluoro-3-(5-fluoro-2-methylpyridine-3-sulfonamido)phenyl]-7-fluoro-N-methyl-1H-indazole-3-carboxamide]",< 500 nM,–,–
"CNC(=O)c1n[nH]c2c(F)c(-c3c(F)ccc(NS(=O)(=O)c4cc(F)cc(CO)c4)c3F)ccc12 [Example 42, 6-[2,6-difluoro-3-[3-fluoro-5-(hydroxymethyl)benzenesulfonamido]phenyl]-7-fluoro-N-methyl-1H-indazole-3-carboxamide]",< 500 nM,–,–
"COc1ncc(Cl)cc1S(=O)(=O)Nc1ccc(F)c(-c2ccc3c(C(=O)NC4CCCOC4)n[nH]c3c2F)c1F (centres unmarked) [Example 55, 6-[3-(5-Chloro-2-methoxypyridine-3-sulfonamido)-2,6-difluorophenyl]-7-fluoro-N-(oxan-3-yl)-1H-indazole-3-carboxamide]",< 500 nM,–,–
"Cc1ncc(F)cc1S(=O)(=O)Nc1ccc(F)c(-c2ccc3c(C(=O)Nc4cnn(C)c4)n[nH]c3c2F)c1F [Example 3DR, 6-(2,6-difluoro-3-((5-fluoro-2-methylpyridine)-3-sulfon-amido)phenyl)-7-fluoro-N-(1-methyl-1H-pyrazol-4-yl)-1H-indazole-3-carboxamide]",–,< 500 nM,–
O=C(NCCCO)c1n[nH]c2c(F)c(-c3c(F)ccc(NS(=O)(=O)c4cc(F)cc5c4CCC5O)c3F)ccc12 (centres unmarked) [Example 4T],–,< 500 nM,–
"COc1ncncc1S(=O)(=O)Nc1ccc(F)c(-c2ccc3c(C(=O)NCCCN(C)C)n[nH]c3c2F)c1F [Example 3CM, 6-(2,6-difluoro-3-((4-methoxypyrimidine)-5-sulfonamido)phenyl)-N-(3-(dimethylamino)propyl)-7-fluoro-1H-indazole-3-carboxamide]",–,> 10000 nM,–
"COc1ncc(F)cc1S(=O)(=O)Nc1cccc(-c2ccc3c(C(=O)NCCCO)n[nH]c3c2F)c1F [Example 26, 7-Fluoro-6-(2-fluoro-3-((5-fluoro-2-methoxypyridine)-3-sulfonamido)phenyl)-N-(3-hydroxypropyl)-1H-indazole-3-carboxamide]",–,< 500 nM,–
"Cc1ccc(C)c(S(=O)(=O)Nc2ccc(F)c(-c3ccc4c(-c5ncc[nH]5)n[nH]c4c3F)c2F)c1 [Example 2BI, N-(2,4-difluoro-3-(7-fluoro-3-(1H-imidazol-2-yl)-1H-indazol-6-yl)phenyl)-2,5-dimethylbenzenesulfonamide]",–,–,IC50 (GCN2 [2]; Table 8): < 500 nM
"COc1ncc(F)cc1S(=O)(=O)Nc1ccc(F)c(-c2ccc3c(-c4n[nH]c(=O)[nH]4)n[nH]c3c2F)c1F [Example 3CW, N-(2,4-difluoro-3-(7-fluoro-3-(5-oxo-4,5-dihydro-1H-1,2,4-triazol-3-yl)-1H-indazol-6-yl)phenyl)-5-fluoro-2-methoxypyridine-3-sulfonamide]",–,< 500 nM,–
"COc1ncc(Cl)cc1S(=O)(=O)Nc1ccc(F)c(-c2ccc3c(C(=O)Nc4cnn(C(F)F)c4)n[nH]c3c2F)c1F [Example 3CR, 6-(3-((5-chloro-2-methoxy-pyridine)-3-sulfonamido)-2,6-difluorophenyl)-N-(1-(difluoromethyl)-1H pyrazol-4-yl)-7-fluoro-1H-indazole-3-carboxamide]",–,500 to 2500 nM,–
O=C1CCc2c1cc(F)cc2S(=O)(=O)Nc1ccc(F)c(-c2ccc3c(C(=O)NCCCO)n[nH]c3c2F)c1F [Example 4U],–,< 500 nM,–
COc1ncc(Cl)cc1S(=O)(=O)Nc1ccc(F)c(-c2ccc3c(-c4cnn[nH]4)n[nH]c3c2F)c1F [Example 4AN],–,< 500 nM,–
"Cn1ccnc1S(=O)(=O)Nc1ccc(F)c(-c2ccc3c(-c4ncc[nH]4)n[nH]c3c2F)c1F [Example 2S, N-(2,4-difluoro-3-(7-fluoro-3-(1H-imidazol-2-yl)-1H-indazol-6-yl)phenyl)-1-methyl-1H-imidazole-2-sulfonamide]",–,–,IC50 (GCN2 [2]; Table 8): 2500 to 10000 nM
